Laboratory results published in ChEMBL document CHEMBL6096732 (J Med Chem, 2025).
Activity calls are given as the source filed them. No cut-off for these calls is given here.

Key:
[1] = biological target: T1, Histone deacetylase 3 (Mus musculus) (UniProt O88895); experiment: In vivo inhibition of HDAC3 in male C57BL/6 mouse model implanted with mouse B16-F10 cells assessed as increase in acetylated histone H3 level in tumor at 20 mg/kg, po administered once daily via gavage for 14 days by DAPI staining based immunofluorescence analysis; assay type: functional, organism-based; conditions: time 14.0 day
T1 sequence (whole entry): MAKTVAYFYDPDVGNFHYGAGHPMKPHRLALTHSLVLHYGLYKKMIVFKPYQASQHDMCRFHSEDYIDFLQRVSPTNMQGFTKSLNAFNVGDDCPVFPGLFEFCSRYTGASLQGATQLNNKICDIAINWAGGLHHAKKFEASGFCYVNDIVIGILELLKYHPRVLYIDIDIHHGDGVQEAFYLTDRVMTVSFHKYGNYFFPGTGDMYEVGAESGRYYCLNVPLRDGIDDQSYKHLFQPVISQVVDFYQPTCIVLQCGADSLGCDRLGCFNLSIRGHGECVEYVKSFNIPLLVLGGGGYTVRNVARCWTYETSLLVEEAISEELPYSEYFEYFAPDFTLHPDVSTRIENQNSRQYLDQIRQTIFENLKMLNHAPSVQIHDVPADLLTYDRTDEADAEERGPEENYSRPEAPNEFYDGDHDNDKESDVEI

[2] = tested on: Mus musculus; experiment: Immunomodulatory activity in male C57BL/6 mouse model implanted with mouse B16-F10 cells assessed as increase in CD3+ CD4+ T cells in tumor at 20 mg/kg, po administered once daily for 14 days by flow cytometric analysis (reference value: 3.1 %); assay type: functional; conditions: time 14 day
[3] = tested on: Mus musculus; experiment: Immunomodulatory activity in male C57BL/6 mouse model implanted with mouse B16-F10 cells assessed as increase in CD3+ CD8+ T cells in tumor at 20 mg/kg, po administered once daily for 14 days by flow cytometric analysis (reference value: 3.2 %); assay type: functional; conditions: time 14 day
[4] = tested on: Mus musculus; experiment: In vivo induction of PD-L1 degradation in male C57BL/6 mouse model implanted with mouse B16-F10 cells assessed as decrease in PD-L1 protein expression in tumor at 20 mg/kg, po administered once daily via gavage for 14 days by DAPI staining based immunofluorescence analysis; assay type: functional, organism-based; conditions: time 14.0 day
[5] = tested on: B16-F10; experiment: Antitumor activity against mouse B16-F10 cells implanted in male C57BL/6 mouse model assessed as tumor growth inhibition at 20 mg/kg, po administered once daily via gavage for 14 days relative to control; assay type: functional; conditions: B16-F10, 336 h, time 14 day, read-out: TGI
[6] = Oral bioavailability in male C57BL/6 mouse at 20 mg/kg; assay type: ADME, organism-based; conditions: in vivo
[7] = tested on: 4T1; experiment: Downregulation of PARP1 expression in mouse 4T1 cells at 2 uM incubated for 24 hrs by Western blot analysis; assay type: functional, cell-based
[8] = tested on: B16-F10; experiment: Induction of DNA damage in mouse B16-F10 cells assessed as increase in gamma-H2AX expression at 2 uM incubated for 24 hrs by Western blot analysis; assay type: functional, cell-based
[9] = tested on: B16-F10; experiment: Downregulation of PARP1 expression in mouse B16-F10 cells at 2 uM incubated for 24 hrs by Western blot analysis; assay type: functional, cell-based
[10] = tested on: 4T1; experiment: Antitumor activity against mouse 4T1 cells implanted in female BALB/c mouse model assessed as decrease in PAPR1 expression in tumor administrated orally as once daily dose via gavage for 14 days by Western blot analysis; assay type: functional, cell-based; conditions: route po, time 14.0 day
[11] = tested on: 4T1; experiment: Antitumor activity against mouse 4T1 cells implanted in female BALB/c mouse model assessed as induction of DNA damage by measuring increase in gamma-H2AX expression in tumor administrated orally as once daily dose via gavage for 14 days by Western blot analysis; assay type: functional, cell-based; conditions: route po, time 14.0 day
[12] = Toxicity in female BALB/c mouse model implanted with mouse 4T1 cells assessed as effect on body weight administrated orally as once daily dose via gavage for 14 days; conditions: in vivo, po, 336 h, time 14 day
[13] = tested on: 4T1; experiment: Induction of DNA damage in mouse 4T1 cells assessed as increase in gamma-H2AX expression at 2 uM incubated for 24 hrs by Western blot analysis; assay type: functional, cell-based
[14] = tested on: 4T1; experiment: Antitumor activity against mouse 4T1 cells implanted in female BALB/c mouse model assessed as tumor growth inhibition administrated orally as once daily dose via gavage for 14 days relative to control; assay type: functional; conditions: route po; time 14 day

inhibition [1] | bioavailability [6] | Compound | Activity [2] | Activity [3] | Activity [4] | inhibition in vivo at 20 mg/kg [5] | Activity [7] | Activity [8] | Activity [9] | Activity [10] | Activity [11] | Activity [12] | Activity [13] | TGI [14]
inactive | < 5% | Cc1c(COc2cc(OCc3cccc(C#N)c3)c(CNC(C)(C)C(=O)O)cc2Cl)cccc1-c1ccccc1 | 27% | 27% | Active | 37% | – | – | – | – | – | – | – | –
– | – | O=C(c1cc(Cc2n[nH]c(=O)c3ccccc23)ccc1F)N1CCN(C(=O)C2CC2)CC1 [OLAPARIB] | – | – | – | – | Active | Active | Active | Active | Active | Non-toxic | Active | 36%
